Measured values published in patent US12187709B2 (Genentech, Inc., priority 2021, dated 2025).

Tests used:
[1] = target: Human Cbl-b (residues 40-426) (Homo sapiens (Human), UniProt Q13191); assay: Cbl-b SPR assay; format: binding; settings: for Fold of selectivity: C-cbl SPR Kd vs Cbl-b SPR Kd; for Kd: SPR, 20° C.
Experimental: (§1) Affinity of binding to Cbl-b and c-Cbl for compounds described herein was assessed by surface plasmon resonance (SPR) according to the following protocol.
(§2) A surface capture range of 1300-1500 RU of protein was used for both isoforms.
(§3) For SPR measurements, 6 concentrations with 2 fold serial dilution were measured with blanks flanking each series for double referencing. […] SPR sensorgrams were recorded in multi-cycle kinetics format, with a contact time of 60 seconds and a flow rate of 40 μl/min, the dissociation time was varied between 120-1200 seconds aiming for 4-5 half-lives of the measured interaction.
(§4) Kinetic and affinity parameters were extracted from the multicycle kinetics data fitting to a 1:1 binding model using the Biacore™ Incyte evaluation software (Cytiva).
(§5) Chaser assay utilize a single cycle kinetics SPR experiment with a contact time of 120 seconds, a flow rate of 50 μl/min and a dissociation time of 450 seconds. Single cycle kinetics titration utilized an initial blank injection and 5 concentrations with 2 fold serial dilution with a maximum concentration of 500 nM, blanked to a preceding 6 point blank single cycle kinetics injection for double referencing.
(§6) The kd is measured independently by determining the percentage unoccupied compound binding site over time by measuring the binding of a chaser compound measured by SPR.
(§7) Chaser binding was measured by a multicycle kinetics SPR experiment using a contact time of 20 seconds, a flow rate of 30 μl/min, and a dissociation time of 120 seconds. […] The % compound bound at a given time was determined by comparison to a single injection of chaser preceding the single cycle kinetics titration defined below. % Compound Bound=(1−(RUT/RUT0))*100
(§8) The % compound bound is plotted against time in seconds and fit to a single exponential, where the exponent represents the kd of the compound-protein complex. The single cycle kinetics experiment of the compound is then fit with a fixed kd determined using the chaser.

c-Cbl (residues 47-435) = c-Cbl (residues 47-435) (Homo sapiens (Human), UniProt P22681); assay: c-Cbl SPR assay; format: binding; settings: 20° C.
Experimental: as §1, §2, §3, §4, §5, §6, §7, §8

Cbl-b = Cbl-b (Homo sapiens (Human), UniProt Q13191); assay: Cbl-b LCK Ub TR-FRET assay (Cbl-b Lck HTRF); format: biochemical; settings: for IC50: Cbl-b LCK Ub TR-FRET; for fold-selectivity (Cbl-b over C-cbl) / (fold-selectivity) Cbl-b and C-Cbl Selectivity: ratio C-cbl Lck HTRF IC50 / Cbl-b Lck HTRF IC50
Method in brief: (§9)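 Signal is read once the detection mix has stood 20 min at ambient temperature. Curves are anchored by DMSO as maximum and by omission of LCK as minimum.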

c-Cbl = c-Cbl (Homo sapiens (Human), UniProt P22681); assay: C-Cbl LCK Ub TR-FRET assay (C-cbl Lck HTRF); format: biochemical
Method in brief: as §9

Chain of Cbl-b (Q13191 40-426): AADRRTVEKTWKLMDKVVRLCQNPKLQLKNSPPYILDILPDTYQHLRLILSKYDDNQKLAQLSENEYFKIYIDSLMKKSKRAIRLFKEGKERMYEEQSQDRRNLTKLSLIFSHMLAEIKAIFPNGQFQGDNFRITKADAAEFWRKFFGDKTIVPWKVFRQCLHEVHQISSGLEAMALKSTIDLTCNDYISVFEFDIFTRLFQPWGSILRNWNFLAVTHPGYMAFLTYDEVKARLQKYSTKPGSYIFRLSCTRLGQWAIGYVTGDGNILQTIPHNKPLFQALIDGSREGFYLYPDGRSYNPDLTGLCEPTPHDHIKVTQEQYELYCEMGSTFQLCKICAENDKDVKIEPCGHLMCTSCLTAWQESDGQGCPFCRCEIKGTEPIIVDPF
Chain of Human Cbl-b (residues 40-426) (Q13191 40-426): as above
Chain of c-Cbl (P22681 47-435): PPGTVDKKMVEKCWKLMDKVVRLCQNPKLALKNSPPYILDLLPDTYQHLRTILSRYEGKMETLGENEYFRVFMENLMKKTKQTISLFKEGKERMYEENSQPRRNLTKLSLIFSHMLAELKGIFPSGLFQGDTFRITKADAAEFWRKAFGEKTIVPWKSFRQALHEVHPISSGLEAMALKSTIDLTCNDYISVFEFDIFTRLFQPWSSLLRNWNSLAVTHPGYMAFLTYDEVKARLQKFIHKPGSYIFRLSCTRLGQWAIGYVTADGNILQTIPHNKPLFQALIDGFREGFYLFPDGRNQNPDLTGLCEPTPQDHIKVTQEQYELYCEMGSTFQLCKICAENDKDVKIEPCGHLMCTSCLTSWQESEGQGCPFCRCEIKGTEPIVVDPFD
Chain of c-Cbl (residues 47-435) (P22681 47-435): as above

Fold of selectivity [1]	Kd [1]	Kd (c-Cbl (residues 47-435))	IC50 (Cbl-b)	fold-selectivity (Cbl-b over C-cbl) (Cbl-b)	IC50 (c-Cbl)	IC50 (Cbl-b; Example 121)	(fold-selectivity) Cbl-b and C-Cbl Selectivity (Cbl-b)	Compound
9.5×	0.0021 µM	0.02 µM	–	–	–	–	–	Cn1cnnc1C1(c2cccc(N3Cc4c(cc(CNC5(C)CCC5)cc4C(F)(F)F)C3=O)c2)CC2(CCC2)C1
14×	0.0057 µM	0.078 µM	–	–	–	–	–	CC(C)[C@H]1CN(C)CCN1Cc1cc2c(c(C(F)(F)F)c1)CN(c1cccc(C3(c4nncn4C)CC4(COC4)C3)c1)C2=O
6.4×	0.0034 µM	0.024 µM	–	–	–	–	–	2-(3-(2-(4-methyl-4H-1,2,4-triazol-3-yl)-6-oxospiro[3.3]heptan-2-yl)phenyl)-6-(((1-methylcyclobutyl)amino)methyl)-4-(trifluoromethyl)isoindolin-1-one [Compound 92]
6.6×	0.0023 µM	0.016 µM	–	–	–	–	–	2-(3-(3,3-dimethyl-1-(4-methyl-4H-1,2,4-triazol-3-yl)cyclobutyl)phenyl)-6-(((1-methylcyclobutyl)amino)methyl)-4-(trifluoromethyl)-isoindolin-1-one [Compound 39]
7.5×	0.001 µM	0.0075 µM	–	–	–	–	–	2-(3-(6-hydroxy-2-(4-methyl-4H-1,2,4-triazol-3-yl)spiro[3.3]heptan-2-yl)phenyl)-6-(((1-methylcyclobutyl)amino)methyl)-4-(trifluoromethyl)isoindolin-1-one [Compound 93]
2.8×	0.059 µM	0.17 µM	–	–	–	–	–	2-(3-((1r,3r)-3-fluoro-1-(4-methyl-4H-1,2,4-triazol-3-yl)cyclobutyl)phenyl)-6-(((1-methylcyclobutyl)amino)methyl)-4-(trifluoromethyl)isoindolin-1-one [Compound 36]
14×	0.019 µM	0.29 µM	0.076 µM	2.4x	0.18 µM	–	–	Cn1cnnc1C(c1cccc(N2Cc3c(cc(CNC4(C)CCC4)cc3C(F)(F)F)C2=O)c1)C1CC(F)(F)C1 (racemic) [Compound 145, 2-(3-((3,3-difluorocyclobutyl)(4-methyl-4H-1,2,4-triazol-3-yl)methyl)phenyl)-6-(((1-methylcyclobutyl)amino)methyl)-4-(trifluoromethyl)isoindolin-1-one]
13×	0.0023 µM	0.029 µM	0.016 µM	(1.5x)	0.024 µM	–	–	Cn1cnnc1[C@@](O)(c1cccc(N2Cc3c(cc(CNC4(C)CCC4)cc3C(F)(F)F)C2=O)c1)C1CCC1 (single isomer, unassigned) [Compound 2]
5×	0.0025 µM	0.012 µM	0.012 µM	(1.5x)	0.018 µM	–	–	CO[C@H]1C[C@H]([C@@H](c2cccc(N3Cc4c(cc(CN5CCN(C)C[C@@H]5C(C)C)cc4C(F)(F)F)C3=O)c2)c2nncn2C)C1 (single isomer, unassigned) [Compound 12]
8.8×	0.63 µM	5.5 µM	0.63 µM	(1.6x)	1 µM	–	–	CO[C@H]1C[C@@H]([C@@H](c2cccc(N3Cc4c(cc(CN5CCN(C)C[C@@H]5C(C)C)cc4C(F)(F)F)C3=O)c2)c2nncn2C)C1 (single isomer, unassigned) [Compound 14]
14×	0.77 µM	11 µM	1.9 µM	(1.6x)	4.9 µM	–	–	CO[C@H]1C[C@H]([C@@H](c2cccc(N3Cc4c(cc(CN5CCN(C)C[C@@H]5C(C)C)cc4C(F)(F)F)C3=O)c2)c2nncn2C)C1 (single isomer, unassigned) [Compound 15]
5.1×	0.0037 µM	0.019 µM	0.0079 µM	(1.8x)	0.0142 µM	–	–	CC(C)[C@H]1CN(C)CCN1Cc1cc2c(c(C(F)(F)F)c1)CN(c1cccc([C@]3(c4nncn4C)C[C@H](C#N)C3)c1)C2=O (single isomer, unassigned) [Compound 63]
5.1×	0.016 µM	0.081 µM	0.024 µM	(2.9x)	0.07 µM	–	–	CC(C)[C@H]1CN(C)CCN1Cc1cc2c(c(C(F)(F)F)c1)CN(c1cccc([C@]3(c4nncn4C)C[C@@H](C#N)C3)c1)C2=O (single isomer, unassigned) [Compound 64]
–	–	–	11 µM	1.9x	20 µM	–	–	Cn1cnnc1[C@]1(c2cccc(N3Cc4c(cc(CNC5(C)CCC5)cc4C(F)(F)F)C3=O)c2)C[C@@H](S(C)(=O)=O)C1 [Compound 325, 2-(3-((1r,3r)-1-(4-methyl-4H-1,2,4-triazol-3-yl)-3-(methylsulfonyl)cyclobutyl)phenyl)-6-(((1-methylcyclobutyl)amino)methyl)-4-(trifluoromethyl)isoindolin-1-one]
–	–	–	16 µM	1.2x	20 µM	–	–	Cn1cnnc1[C@]1(c2cccc(N3Cc4c(cc(CNC5(C)CCC5)cc4C(F)(F)F)C3=O)c2)C[C@H](S(C)(=O)=O)C1 [Compound 326, 2-(3-((1s,3s)-1-(4-methyl-4H-1,2,4-triazol-3-yl)-3-(methylsulfonyl)cyclobutyl)phenyl)-6-(((1-methylcyclobutyl)amino)methyl)-4-(trifluoromethyl)isoindolin-1-one]
–	–	–	0.016 µM	4.8x	0.077 µM	–	–	Cn1cnnc1[C@]1(c2cccc(N3Cc4c(cc(CNC5(C)CCC5)cc4C(F)(F)F)C3=O)c2)C[C@H](OC(F)(F)F)C1 [Compound 350, 2-(3-((1s,3s)-1-(4-methyl-4H-1,2,4-triazol-3-yl)-3-(trifluoromethoxy)cyclobutyl)phenyl)-6-(((1 methylcyclobutyl)amino)methyl)-4-(trifluoromethyl)isoindolin-1-one]
–	–	–	–	–	0.72 µM	0.1 µM	7.2x	CO[C@H]1C[C@](c2cccc(N3Cc4c(cc(CN5CCCCC5)cc4C(F)(F)F)C3=O)c2)(c2nncn2C)C1 [Compound 420, 2-(3-((1r,3r)-3-methoxy-1-(4-methyl-4H-1,2,4-triazol-3-yl)cyclobutyl)phenyl)-6-(piperidin-1-ylmethyl)-4-(trifluoromethyl)isoindolin-1-one]
–	–	–	–	–	1.5 µM	0.23 µM	6.5x	CO[C@H]1C[C@](c2cccc(N3Cc4c(cc(CN5CCC6(CC5)CC(O)C6)cc4C(F)(F)F)C3=O)c2)(c2nncn2C)C1 [Compound 424, 6-((2-hydroxy-7-azaspiro[3.5]nonan-7-yl)methyl)-2-(3-((1r,3r)-3-methoxy-1-(4-methyl-4H-1,2,4-triazol-3-yl)cyclobutyl)phenyl)-4-(trifluoromethyl)isoindolin-1-one]
–	–	–	–	–	5.7 µM	3.3 µM	1.7x	C[C@@H](NC1(C)CCC1)c1cc2c(c(C(F)(F)F)c1)CN(c1cccc([C@@H](c3nncn3C)C3COC3)c1)C2=O [Compound 443, 2-(3-((S)-(4-methyl-4H-1,2,4-triazol-3-yl)(oxetan-3-yl)methyl)phenyl)-6-((R)-1-((1-methylcyclobutyl)amino)ethyl)-4-(trifluoromethyl)isoindolin-1-one]
–	–	–	–	–	3.9 µM	0.61 µM	6.4x	Cn1cnnc1[C@H](c1cccc(N2Cc3c(cc(CNC4(C)CCC4)cc3C(F)F)C2=O)c1)C1CC(F)C1 (stereo partly drawn) [Compound 460, 4-(difluoromethyl)-2-(3-((S)-((1r,3S)-3-fluorocyclobutyl)(4-methyl-4H-1,2,4-triazol-3-yl)methyl)phenyl)-6-(((1-methylcyclobutyl)amino)methyl)isoindolin-1-one]
–	–	–	–	–	0.25 µM	0.029 µM	8.6x	CO[C@H]1C[C@](c2cccc(N3Cc4c(cc(CNC5(C)COC5)cc4C(F)(F)F)C3=O)c2)(c2nncn2C)C1 [Compound 479, 2-(3-((1r,3r)-3-methoxy-1-(4-methyl-4H-1,2,4-triazol-3-yl)cyclobutyl)phenyl)-6-(((3-methyloxetan-3-yl)amino)methyl)-4-(trifluoromethyl)isoindolin-1-one]
